The record followed here is patent US20240067639A1, “SMALL MOLECULES THAT TARGET THE RNA THAT CAUSES ALS” (EXPANSION THERAPEUTICS, INC., priority 2020, published 2024).

Assay [1] has as its target biotinylated r(G4C2)8 RNA and hnRNP H1-His6. In words: TR-FRET hnRNP H binding assay. As for the experimental part: TR-FRET hnRNP H Binding Assay. The TR-FRET assays were performed as previously described (Disney et al., 2012) except the final concentrations of biotinylated r(G4C2)8 (SEQ ID NO: 2) RNA and hnRNP H1-His6 were 80 nM and 75 nM, respectively. The RNA was folded by heating to 95° C. for 5 min in 1× Folding Buffer followed by slowly cooling to room temperature. The buffer was adjusted to 1×TR-FRET Assay Buffer followed by addition of compound. The mixture was incubated for 15 min at room temperature and then hnRNP H1-His6 was added. After an additional 15 min incubation, streptavidin-XL665 (HTRF, Cisbio Bioassays) and anti-His6-Tb (HTRF, Cisbio Bioassays) were added to a final concentration of 40 nM and 0.44 ng/μL, respectively. After incubating for 1 h, TR-FRET was measured as previously described. The IC50s were either calculated by fitting the equation (1) in Graphpad Prism.

Assay [2] deals with RAN translation of (G4C2)66-No ATG-GFP in HEK293T cells. Put plainly: Cell-based assay of RAN translation inhibition (GFP/mCherry reporter). Particulars: Homo sapiens, HEK-293T; for IC25: 24 h, read-out: RANT IC25.
Where [3] appears, read: Table E, inhibition of RAN translation, HEK293T, read-out: IC50.
Where [4] appears, read: Table D, HEK293T, 24 h treatment.

Read-outs that look alike come from different tables or passages of the source.

`Cn1c2ccc(OCCN3CCOCC3)cc2c2cc3cnccc3cc21` [Example 46, 4-[2-(6-methylpyrido[4,3-b]carbazol-9-yl)oxyethyl]morpholine]: the Ki in assay [1] (Table D) amounted to 4.6 µM.

In assay [1] (Table F), `Cc1c2ccnc(C(C)C)c2cc2c3cc(C(=O)NCCN(C)C)ccc3n(C)c12` [Compound 238, N-(2-(dimethylamino)ethyl)-1-isopropyl-5,6-dimethyl-6H-pyrido[4,3-b]carbazole-9-carboxamide] returned a Ki of 20 µM.

`COc1ccc2[nH]c3c(C)c4ccnc(C(=O)NCCCN(C)C)c4cc3c2c1` [Compound 210]: in assay [2] (setting [3]), the IC50 is 10.3 µM.

`COc1cccc2c3cc4c(C(=O)N[C@H](C)CN(C)C)nccc4c(C)c3n(C)c12` [Compound 240, (R)—N-(1-(dimethylamino)propan-2-yl)-7-methoxy-5,6-dimethyl-6H-pyrido[4,3-b]carbazole-1-carboxamide]: in assay [1] (Table F), the Ki was determined as 20 µM. This lies in the double-digit micromolar range.

In the case of `COc1ccc2c(c1)c1cc3cnccc3c(C)c1n2CCN(C)C` [Compound 20, 2-(9-methoxy-5-methyl-6H-pyrido[4,3-b]carbazol-6-yl)-N,N-dimethylethan-1-amine], the Ki in assay [1] (Table D) is > 200 µM.

Take `COc1ccc2sc3c(C)c4ccncc4cc3c2c1` [Example 67, 9-methoxy-5-methyl-benzothiopheno[2,3-g]isoquinoline]: the Ki in assay [1] (Table D) was > 200 µM.

Turning to `Cc1c2ccncc2cc2c3cc(OCC#N)ccc3n(C)c12` [Compound 13, 2-((5,6-dimethyl-6H-pyrido[4,3-b]carbazol-9-yl)oxy)acetonitrile], the Ki in assay [1] (Table D) was > 200 µM.

For `COc1ccc2[nH]c3c(c2c1)C(=O)c1cnccc1C3=O` [Example 47, 9-methoxy-5H-pyrido[4,3-b]carbazole-5,11(6H)-dione], the Ki in assay [1] (Table D) was > 200 µM.

With `Cc1c2ccncc2cc2c1oc1ccc(OCC3=NCCN3)cc12` [Compound 233, 9-((4,5-dihydro-1H-imidazol-2-yl)methoxy)-5-methylbenzofuro[2,3-g]isoquinoline], the Ki in assay [1] (Table F) was determined as 7.5 µM. This lies in the single-digit micromolar range.

For `COc1ccc2[nH]c3c(C)c4ccnc(C(=O)NCCN)c4cc3c2c1` [Compound 208], in assay [2] (setting [3]), the IC50 is 2.2 µM.

For the molecule `COc1ccc2c(c1)c1cc3cnccc3c(C)c1n2Cc1cnn(C)c1` [Compound 14, 9-methoxy-5-methyl-6-((1-methyl-1H-pyrazol-4-yl)methyl)-6H-pyrido[4,3-b]carbazol], in assay [1] (Table D), the Ki is > 200 µM.

As to `COc1ccc2c(c1)c1cc3cnccc3c(C)c1n2CCCN1CCN(C)CC1` [Compound 22, 9-methoxy-5-methyl-6-(3-(4-methylpiperazin-1-yl)propyl)-6H-pyrido[4,3-b]carbazole], the Ki in assay [1] (Table D) is > 200 µM.

For `COCCNC(=O)c1nccc2c(C)c3[nH]c4ccc(OC)cc4c3cc12` [Compound 205], the IC50 in assay [2] (setting [3]) was 12.5 µM.

In the case of `CCCNC(=O)c1nccc2c(C)c3[nH]c4ccc(OC)cc4c3cc12` [Compound 206], the IC50 in assay [2] (setting [3]) was > 12.5 µM.

On to `COc1ccc2c(c1)c1cc3cnccc3c(C)c1n2C[C@@H](O)c1ccccc1` [Compound 19, (S)-2-(9-methoxy-5-methyl-6H-pyrido[4,3-b]carbazol-6-yl)-1-phenylethan-1-ol], for which the Ki in assay [1] (Table D) is > 200 µM.

Turning to `Cc1c2ccncc2cc2c3cc(OCCN4CCC(F)(F)CC4)ccc3n(C)c12` [Example 40, 9-(2-(4,4-difluoropiperidin-1-yl)ethoxy)-5,6-dimethyl-6H-pyrido[4,3-b]carbazole], the Ki in assay [1] (Table D) was > 200 µM.

In turn, `Cc1c2ccnc(C(=O)N[C@H](C)CN(C)C)c2cc2c3c(OCCCN4CCN(C)CC4)cccc3n(C)c12` [Compound 241, (R)—N-(1-(dimethylamino)propan-2-yl)-5,6-dimethyl-10-(3-(4-methylpiperazin-1-yl)propoxy)-6H-pyrido[4,3-b]carbazole-1-carboxamide] had a Ki in assay [1] (Table F) of 1.8 µM.

`Cc1c2ccncc2cc2c3cc(OCC4=NCCN4)ccc3n(CCCN3CCN(C)CC3)c12` [Example 43, 9-((4,5-dihydro-1H-imidazol-2-yl)methoxy)-5-methyl-6-(3-(4-methylpiperazin-1-yl)propyl)-6H-pyrido[4,3-b]carbazole] displayed a Ki in assay [1] (Table D) of 27 µM.

Turning to `Cc1c2ccncc2cc2c3cc(C(=O)NCCOC(C)(C)C)ccc3n(C)c12` [Compound 301, N-(2-(tert-butoxy)ethyl)-5,6-dimethyl-6H-pyrido[4,3-b]carbazole-9-carboxamide], in assay [2] (Table G, HEK293T, read-out: RANT IC50), the IC50 turned out to be 13 µM.

In assay [1] (Table D), `Cc1c2ccncc2cc2c3cc(OCC(=N)N)ccc3n(C)c12` [Example 45, 2-((5,6-dimethyl-6H-pyrido[4,3-b]carbazol-9-yl)oxy)acetimidamide] registered a Ki of 21 µM.

Turning to `Cc1c2ccncc2cc2c3cc(OCC(=O)NCCN(C)C)ccc3n(C)c12` [Example 59, 2-((5,6-dimethyl-6H-pyrido[4,3-b]carbazol-9-yl)oxy)-N-(2-(dimethylamino)ethyl)-acetamide], the affinity in assay [1] (Table D), expressed as Ki, was 1.3 µM.

As for `COc1ccc2c(c1)c1cc3cnccc3c(C)c1n2Cc1ccncc1` [Compound 16, 9-methoxy-5-methyl-6-(pyridin-4-ylmethyl)-6H-pyrido[4,3-b]carbazole], the Ki in assay [1] (Table D) is > 200 µM.

Regarding `COc1ccc2[nH]c3c(C)c4cnccc4cc3c2c1` [Example 49, 7-methoxy-11-methyl-10H-pyrido[3,4-b]carbazole], the Ki in assay [1] (Table D) was > 200 µM.

`Cc1c2ccncc2cc2c3cc(OCc4ncc[nH]4)ccc3n(C)c12` [Compound 251, 9-((1H-imidazol-2-yl)methoxy)-5,6-dimethyl-6H-pyrido[4,3-b]carbazole]: the Ki in assay [1] (Table F) amounted to 19 µM.

Molecule `Cc1c2ccncc2cc2c3cc(C(=O)OCCN(C)C)ccc3n(C)c12` [Compound 239, 2-(dimethylamino)ethyl 5,6-dimethyl-6H-pyrido[4,3-b]carbazole-9-carboxylate] registered a Ki in assay [1] (Table F) of 24 µM. This Ki and that of the molecule before are within 1.5-fold of each other.

Regarding `Cc1c2ccncc2cc2c3cc(Oc4ccccn4)ccc3n(C)c12` [Compound 305, 5,6-dimethyl-9-(pyridin-2-yloxy)-6H-pyrido[4,3-b]carbazole], the IC50 in assay [2] (read-out: RANT IC50) was found to be 18 µM.

On to `COC(=O)CCCOc1ccc2c(c1)c1cc3cnccc3c(C)c1n2C` [Example 44b, methyl 4-((5,6-dimethyl-6H-pyrido[4,3-b]carbazol-9-yl)oxy)butanoate], for which, in assay [1] (Table D), the Ki is > 200 µM.

In the case of `Cc1c2ccncc2cc2c3cc(O)ccc3n(C)c12` [Compound 2, 5,6-dimethyl-6H-pyrido[4,3-b]carbazol-9-ol], the Ki in assay [1] (Table D) is > 200 µM.

In the case of `Cc1c2ccncc2cc2c3ccc(OCCN4CCOCC4)cc3n(C)c12` [Example 53, 4-(2-((5,6-dimethyl-6H-pyrido[4,3-b]carbazol-8-yl)oxy)ethyl)morpholine], the Ki in assay [1] (Table D) is > 200 µM.

As to `Cc1c2ccncc2cc2c3cc(OCCN4CCCC4)ccc3n(C)c12` [Compound 7, 5,6-dimethyl-9-(2-(pyrrolidin-1-yl)ethoxy)-6H-pyrido[4,3-b]carbazole], the IC25 in assay [2] (setting [4]) is > 5 µM.

For `COc1ccc2c(c1)c1cc3c(C(=O)O)nccc3c(C)c1n2C` [Compound 24, 9-methoxy-5,6-dimethyl-6H-pyrido[4,3-b]carbazole-1-carboxylic acid], in assay [1] (Table D), the Ki was > 200 µM.

Take `Cc1c2ccncc2cc2c3cc(OCCN4CCC(O)CC4)ccc3n(C)c12` [Compound 228, 1-(2-((5,6-dimethyl-6H-pyrido[4,3-b]carbazol-9-yl)oxy)ethyl)piperidin-4-ol]: the IC25 in assay [2] was 1.3 µM.

For `CCOC(=O)c1nccc2c(C)c3c(cc12)c1cc(OC)ccc1n3C` [Compound 204, Ethyl-9-methoxy-5,6-dimethyl-6H-pyrido[4,3-b]carbazole-1-carboxylate], the IC50 in assay [2] (setting [3]) was found to be 12.5 µM.

For the molecule `Cc1c2ccncc2cc2c3cc(C(=O)NCCN)ccc3n(C)c12` [Example 74, N-(2-aminoethyl)-5,6-dimethyl-6H-pyrido[4,3-b]carbazole-9-carboxamide], the IC25 in assay [2] (setting [4]) is > 5 µM.

Consider `Cc1c2ccncc2cc2c3cc(C(=O)N4CCNCC4)ccc3n(C)c12` [Example 72, (5,6-dimethyl-6H-pyrido[4,3-b]carbazol-9-yl)(piperazin-1-yl)methanone], for which the IC25 in assay [2] (setting [4]) is > 5 µM.

As to `COc1ccc2c(c1)c1cc3c(C(=O)N[C@H](C)CN(C)C)nccc3c(C)c1n2C` [Compound 212, (R)—N-(1-(dimethylamino)propan-2-yl)-9-methoxy-5,6-dimethyl-6H-pyrido[4,3-b]carbazole-1-carboxamide], the IC50 in assay [2] (setting [3]) was determined as 3.1 µM.

Consider `COc1ccc2[nH]c3c(C)c4ccnc(C(=O)NCCN(C)C)c4cc3c2c1` [Compound 209], for which the IC50 in assay [2] (setting [3]) came out at 3.1 µM.

As for `COc1ccc2[nH]c3c(C)c4ccnc(C(=O)NCCO)c4cc3c2c1` [Compound 207], the IC50 in assay [2] (setting [3]) came out at 6 µM.

As for `CCOC(=O)c1nccc2c(C)c3[nH]c4ccc(OC)cc4c3cc12` [Compound 202, Ethyl-9-methoxy-5-methyl-6H-pyrido[4,3-b]carbazole-1-carboxylate], in assay [2] (setting [3]), the IC50 turned out to be 12 µM.

`COc1ccc2c(c1)c1cc3c(C(=O)NCCN(C)C)nccc3c(C)c1n2C` [Compound 211]: the IC50 in assay [2] (setting [3]) was found to be 3.1 µM.

As to `CCOC(=O)C1=NCCc2c1cc1c([nH]c3ccc(OC)cc31)c2C` [Compound 203], the IC50 in assay [2] (setting [3]) was > 12.5 µM.

For the molecule `COCCNC(=O)c1ccc2c(c1)c1cc3cnccc3c(C)c1n2C` [Example 79, N-(2-methoxyethyl)-5,6-dimethyl-6H-pyrido[4,3-b]carbazole-9-carboxamide], in assay [2] (setting [4]), the IC25 was found to be 1.1 µM.
